Data as given in US20230079714A1, “1-AMINO-1-CYCLOPROPANECARBOXYLIC ACID FOR THINNING OF FRUITS” (priority 2021, published 2023).

Columns and labels:
Assay type in all cases: in vivo
peach trees = experiment: Thinning trials Greece, Italy and Spain 2020, fruit set, peach sites; settings: pink bud stage
Experimental: (§1) Thinning trials were conducted Greece, Italy and Spain in 2020. Specifically, 1-amino-1-cyclopropanecarboxylic acid was prepared at 200, 300, 400, 500, 800 and 1,000 ppm ACC solutions. These solutions were applied as a foliar spray to peach trees (i.e. Spain North, Spain South #1 and Greece #2) and nectarine trees (i.e. Spain South #1 and Greece #1) at pink bud stage. […] Thinning activity is expressed as fruit set (the number of large fruit per 100 flowers).

GlenGlo Peach trees [1] = experiment: Peach tree thinning trial, foliage quality rating; settings: for Foliage Rating: 1 is the best and 3 is the worst
Experimental: (§2) Thinning trials were conducted in Coloma, Mich. in May 2018. Specifically, 1-amino-1-cyclopropanecarboxylic acid was prepared at 300 and 600 ppm ACC solutions with 0.05% 2-butoxyethanol, poloxalene, monopropylene glycol as a surfactant. These solutions were applied as a foliar spray to GlenGlo Peach trees at pink bud stage, full bloom and after petal fall. Three one year-old shoots were flagged for each treatment on eight replicate trees. Fruit and defoliation were evaluated four weeks after bloom applications and two weeks after the post-petal fall application. […] Thinning activity is expressed as fruit set (the number of large fruit per 100 flowers).

[2] = system: plum trees (Candy Stripe and Black Majesty); experiment: Plum tree thinning trial, fruit set (Chile, 2020); settings: for % Fruit Set 'Black Majesty': Black Majesty plum; for % Fruit set 'Candy Stripe': Candy Stripe plum; for % Fruit Set (Avg): average of two varieties; for reduced fruit set on average over control: white bud stage, vs untreated control
Experimental: Thinning trials were conducted Chile in 2020. Specifically, 1-amino-1-cyclopropanecarboxylic acid was prepared at 300 and 450 ppm ACC solutions. These solutions were applied as a foliar spray to two separate varieties of plum trees (i.e. Candy Stripe and Black Majesty) at the white bud stage, the full bloom stage or the petal fall stage. […] Thinning activity is expressed as fruit set (the number of large fruit per 100 flowers).

GlenGlo Peach trees [3] = experiment: Peach tree thinning trial, fruit set (Coloma, Mich., 2018); settings: for reduced fruit set over control: pink bud stage, vs surfactant only control
Experimental: as §2

nectarine trees = experiment: Thinning trials Greece, Italy and Spain 2020, fruit set, nectarine sites; settings: pink bud stage
Experimental: Thinning trials were conducted Greece, Italy and Spain in 2020. Specifically, 1-amino-1-cyclopropanecarboxylic acid was prepared at 200, 300, 400, 500, 800 and 1,000 ppm ACC solutions. These solutions were applied as a foliar spray to peach trees (i.e. […]

[4] = system: peach and nectarine trees; experiment: Thinning trials Greece, Italy and Spain 2020, fruit set, Italy site and average of all sites; settings: pink bud stage; for % Fruit Set (Avg): average of sites; for reduced fruit set on average over control: vs untreated control
Experimental: as §1

SMILES: NC1(C(=O)O)CC1 [ACC, 1-amino-1-cyclopropanecarboxylic acid]
- % Fruit Set (Greece #2) (peach trees; 200 ppm ACC): 33%
- % Fruit Set (Spain North) (peach trees; 200 ppm ACC): 50%
- % Fruit Set (Spain South#1) (peach trees; 200 ppm ACC): 55%
- % Fruit Set (Greece #2) (peach trees; 300 ppm ACC): 32%
- % Fruit Set (Spain North) (peach trees; 300 ppm ACC): 44%
- % Fruit Set (Spain South#1) (peach trees; 300 ppm ACC): 46%
- % Fruit Set (Greece #2) (peach trees; 400 ppm ACC): 28%
- % Fruit Set (Spain North) (peach trees; 400 ppm ACC): 33%
- % Fruit Set (Spain South#1) (peach trees; 400 ppm ACC): 39%
- % Fruit Set (Greece #2) (peach trees; 500 ppm ACC): 28%
- % Fruit Set (Spain North) (peach trees; 500 ppm ACC): 25%
- % Fruit Set (Spain South#1) (peach trees; 500 ppm ACC): 42%
- % Fruit Set (Greece #2) (peach trees; 800 ppm ACC): 23%
- % Fruit Set (Spain North) (peach trees; 800 ppm ACC): 7%
- % Fruit Set (Spain South#1) (peach trees; 800 ppm ACC): 31%
- % Fruit Set (Greece #2) (peach trees; 1,000 ppm ACC): 21%
- % Fruit Set (Spain North) (peach trees; 1,000 ppm ACC): 7%
- % Fruit Set (Spain South#1) (peach trees; 1,000 ppm ACC): 32%
- Foliage Rating (GlenGlo Peach trees [1]; 300 ppm ACC, After Petal Fall): 1.86
- Foliage Rating (GlenGlo Peach trees [1]; 300 ppm ACC, Full Bloom): 2.10
- Foliage Rating (GlenGlo Peach trees [1]; 300 ppm ACC, Pink Bud Stage): 1.52
- Foliage Rating (GlenGlo Peach trees [1]; 600 ppm ACC, After Petal Fall): 1.90
- Foliage Rating (GlenGlo Peach trees [1]; 600 ppm ACC, Full Bloom): 2.67
- Foliage Rating (GlenGlo Peach trees [1]; 600 ppm ACC, Pink Bud Stage): 1.95
- foliage quality (GlenGlo Peach trees [1]; application at the pink bud stage): did not significantly reduce foliage quality
- % Fruit Set 'Black Majesty' ([2]; 300 ppm ACC, Full Bloom Stage): 9%
- % Fruit set 'Candy Stripe' ([2]; 300 ppm ACC, Full Bloom Stage): 4%
- % Fruit Set (Avg) ([2]; 300 ppm ACC, Full Bloom Stage): 6.5%
- % Fruit Set 'Black Majesty' ([2]; 300 ppm ACC, Petal Fall Stage): 8%
- % Fruit set 'Candy Stripe' ([2]; 300 ppm ACC, Petal Fall Stage): 5%
- % Fruit Set (Avg) ([2]; 300 ppm ACC, Petal Fall Stage): 6.5%
- % Fruit Set 'Black Majesty' ([2]; 300 ppm ACC, White Bud Stage): 4%
- % Fruit set 'Candy Stripe' ([2]; 300 ppm ACC, White Bud Stage): 1%
- % Fruit Set (Avg) ([2]; 300 ppm ACC, White Bud Stage): 2.5%
- reduced fruit set on average over control ([2]; 300 ppm): 21.5%
- % Fruit Set 'Black Majesty' ([2]; 450 ppm ACC, Full Bloom Stage): 9%
- % Fruit set 'Candy Stripe' ([2]; 450 ppm ACC, Full Bloom Stage): 4%
- % Fruit Set (Avg) ([2]; 450 ppm ACC, Full Bloom Stage): 6.5%
- % Fruit Set 'Black Majesty' ([2]; 450 ppm ACC, Petal Fall Stage): 8%
- % Fruit set 'Candy Stripe' ([2]; 450 ppm ACC, Petal Fall Stage): 3%
- % Fruit Set (Avg) ([2]; 450 ppm ACC, Petal Fall Stage): 5.5%
- % Fruit Set 'Black Majesty' ([2]; 450 ppm ACC, White Bud Stage): 5%
- % Fruit set 'Candy Stripe' ([2]; 450 ppm ACC, White Bud Stage): 1%
- % Fruit Set (Avg) ([2]; 450 ppm ACC, White Bud Stage): 3%
- reduced fruit set on average over control ([2]; 450 ppm): 21%
- % Fruit Set (GlenGlo Peach trees [3]; 300 ppm ACC foliar spray, After Petal Fall): 57%
- % Fruit Set (GlenGlo Peach trees [3]; 300 ppm ACC foliar spray, Full Bloom): 10%
- % Fruit Set (GlenGlo Peach trees [3]; 300 ppm ACC foliar spray, Pink Bud Stage): 10%
- reduced fruit set over control (GlenGlo Peach trees [3]; 300 ppm): 310%
- % Fruit Set (GlenGlo Peach trees [3]; 600 ppm ACC foliar spray, After Petal Fall): 45%
- % Fruit Set (GlenGlo Peach trees [3]; 600 ppm ACC foliar spray, Full Bloom): 1%
- % Fruit Set (GlenGlo Peach trees [3]; 600 ppm ACC foliar spray, Pink Bud Stage): 6%
- reduced fruit set over control (GlenGlo Peach trees [3]; 600 ppm): 583%
- thinning activity (GlenGlo Peach trees [3]; application after petal fall): did not provide effective thinning activity
- % Fruit Set (Greece #1) (nectarine trees; 200 ppm ACC): 37%
- % Fruit Set (Spain South #2) (nectarine trees; 200 ppm ACC): 55%
- % Fruit Set (Greece #1) (nectarine trees; 300 ppm ACC): 32%
- % Fruit Set (Spain South #2) (nectarine trees; 300 ppm ACC): 55%
- % Fruit Set (Greece #1) (nectarine trees; 400 ppm ACC): 28%
- % Fruit Set (Spain South #2) (nectarine trees; 400 ppm ACC): 48%
- % Fruit Set (Greece #1) (nectarine trees; 500 ppm ACC): 25%
- % Fruit Set (Spain South #2) (nectarine trees; 500 ppm ACC): 45%
- % Fruit Set (Greece #1) (nectarine trees; 800 ppm ACC): 19%
- % Fruit Set (Spain South #2) (nectarine trees; 800 ppm ACC): 37%
- % Fruit Set (Greece #1) (nectarine trees; 1,000 ppm ACC): 16%
- % Fruit Set (Spain South #2) (nectarine trees; 1,000 ppm ACC): 37%
- % Fruit Set (Italy) ([4]; 200 ppm ACC): 33%
- % Fruit Set (Avg) ([4]; 200 ppm ACC): 44%
- reduced fruit set on average over control ([4]; 200 ppm): 18%
- % Fruit Set (Italy) ([4]; 300 ppm ACC): 32%
- % Fruit Set (Avg) ([4]; 300 ppm ACC): 40%
- reduced fruit set on average over control ([4]; 300 ppm): 30%
- % Fruit Set (Italy) ([4]; 400 ppm ACC): 34%
- % Fruit Set (Avg) ([4]; 400 ppm ACC): 35%
- reduced fruit set on average over control ([4]; 400 ppm): 49%
- % Fruit Set (Italy) ([4]; 500 ppm ACC): 32%
- % Fruit Set (Avg) ([4]; 500 ppm ACC): 33%
- reduced fruit set on average over control ([4]; 500 ppm): 58%
- % Fruit Set (Italy) ([4]; 800 ppm ACC): 32%
- % Fruit Set (Avg) ([4]; 800 ppm ACC): 25%
- reduced fruit set on average over control ([4]; 800 ppm): 108%
- % Fruit Set (Italy) ([4]; 1,000 ppm ACC): 31%
- % Fruit Set (Avg) ([4]; 1,000 ppm ACC): 24%
- reduced fruit set on average over control ([4]; 1,000 ppm): 117%
